Holding throughout (format): cell-based
What all share (details): SRB staining

Assay [1] relates to human lung cancer cell (HCC827, EGFR Exon 19 deletion activating mutation). As to the kind of experiment: Proliferation inhibition (SRB) on human lung cancer cell HCC827. The source says:
(§1) The pharmacodynamic action of the compound of the present invention in terms of inhibiting the proliferation of cancer cells may be assayed by conventional methods. […] Inhibition ratio (%)=[(blank control OD−inhibitor OD)/blank control OD]×100%
(§2) Blank control OD: the OD value of the well of normally growed cells without the action of a drug.
(§3) Inhibitor OD: the OD value of the well of cells with the action of the added compounds to be screened.
(§4) The median inhibitory concentration (IC50) value is obtained by the software GraphPad Prism 5.0 by the 4-parameter logistic curve fit calculation. Each experiment is repeated three times, and the average IC50 value for three experiments is used as the final index for the inhibitory ability.
(§5) Cells in the logarithmic phase were inoculated to 96-well culture plates (cell density: 5000/well, cell suspension: 180 μl/well), and cultured at 37° C. under 5% CO2 for 24 hours. After the culturing, the cells adhered to the well walls. Each of compounds was dissolved in DMSO in advance to formulate a […] stock solution. Upon testing, the stock solution was diluted with complete medium to 10 times the target concentration in another 96-cell plate. And then the compound was added at 20 μl/cell in the 96-well plate in which the cells were inoculated, i.e. the target concentration could be reached. The well for each concentration was triplicated, and the blank control was established. Cells continued to be cultured at 37° C. under 5% CO2 for 72 hours. After the termination of culturing, 50 μl pre-cooled (4° C.) 50% trichloroacetic acid, i.e., TCA was added to each of wells (final concentration=10%), and was placed at 4° C. for 1 hour to fix the cells. The resulting matter was washed with purified water for at least 5 times, and dried naturally in air or at 60° C. in an oven. 4 mg/ml Sulforhodamine B (SRB) solution prepared by 1% glacial acetic acid/purified water was added at 100 μl/well to each well so as to stain for 1 hour at room temperature. The supernatant was discarded. The residue was washed with 1% acetic acid for at least 5 times to remove the non-specifically binding, and dried for use. To each well was added 150 μl of 10 mM Tris-HCl solution for dissolving the contents therein.

Assay [2] has as its system human lung cancer cell (H1975, EGFR L858R/T790M resistant mutation). As to the kind of experiment: Proliferation inhibition (SRB) on human lung cancer cell H1975.
Text: as §1, §2, §3, §4, §5

The subject of assay [3] is human skin cancer cell (A431, wild-type EGFR). Briefly: Proliferation inhibition (SRB) on human skin cancer cell A431.
Text: as §1, §2, §3, §4, §5

Take `C=CC(=O)Nc1cc(Nc2nccc(-c3cn(C)c4ccccc34)n2)c(OCC(F)(F)F)nc1N(C)CCN(C)C` [Example 3 compound, N-{2-{[2-(dimethylamino)ethyl](methyl)amino}-6-(2,2,2-trifluoroethoxyl)-5-{[4-(1-methyl-1H-indol-3-yl)pyrimidin-2-yl]amino}pyridin-3-yl}acrylamide]: the 50% inhibitory concentration (IC50) in assay [1] (Homo sapiens, HCC827, 72 h) worked out at 1.34 nM; in assay [2] (Homo sapiens, NCI-H1975, 72 h) it was 2.28 nM; in assay [3] (Homo sapiens, A-431, 72 h), 224 nM.
Turning to `C=CC(=O)Nc1cc(Nc2ncc(F)c(-c3cn(C)c4ccccc34)n2)c(OCC(F)(F)F)nc1N(C)CCN(C)C` [Example 14 compound, N-{2-{[2-(dimethylamino)ethyl](methyl)amino}-6-(2,2,2-trifluoroethoxyl)-5-{5-fluoro-[4-(1-methyl-1H-indol-3-yl)pyrimidin-2-yl]amino}pyridin-3-yl}acrylamide], the half-maximal inhibitory concentration (IC50) in assay [1] (Homo sapiens, HCC827, 72 h) was determined as 0.77 nM; in assay [2] (Homo sapiens, NCI-H1975, 72 h), 5.17 nM; in assay [3] (Homo sapiens, A-431, 72 h) it was 242 nM.
As for `C=CC(=O)Nc1cc(Nc2ncc(Cl)c(-c3cn(C)c4ccc(F)cc34)n2)c(OC(C)C)nc1N(C)CCN(C)C` [Example 9 compound, N-{2-{[2-(dimethylamino)ethyl](methyl)amino}-6-isopropyloxy-5-{5-chloro-[4-(1-methyl-5-fluoro-1H-indol-3-yl)pyrimidin-2-yl]amino}pyridin-3-yl}acrylamide], the IC50 in assay [1] (Homo sapiens, HCC827, 72 h) stood at 1.17 nM; in assay [2] (Homo sapiens, NCI-H1975, 72 h), 12.6 nM; in assay [3] (Homo sapiens, A-431, 72 h) it was 697 nM.
In the case of `C=CC(=O)Nc1cc(Nc2ncc(Cl)c(-c3cn(C)c4ccccc34)n2)c(OC(C)C)nc1N(C)CCN(C)C` [Example 16 compound, N-{2-{[2-(dimethylamino)ethyl](methyl)amino}-6-isopropyloxy-5-{5-chloro-[4-(1-methyl-1H-indol-3-yl)pyrimidin-2-yl]amino}pyridin-3-yl}acrylamide methanesulfonate], the IC50 in assay [1] (Homo sapiens, HCC827, 72 h) worked out at 1.45 nM; in assay [2] (Homo sapiens, NCI-H1975, 72 h), 5.43 nM; in assay [3] (Homo sapiens, A-431, 72 h), 273 nM.
`C=CC(=O)Nc1cc(Nc2ncc(Cl)c(-c3cnc(N)nc3)n2)c(OC(C)C)nc1N(C)CCN(C)C` [Example 23 compound, N-{2-{[2-(dimethylamino)ethyl](methyl)amino}-6-isopropyloxy-5-{[5-chloro-2′-amino-(4,5′-bipyrimidine)-2-yl]amino}pyridin-3-yl}acrylamide]: the IC50 in assay [1] (Homo sapiens, HCC827, 72 h) was 3.08 nM; in assay [2] (Homo sapiens, NCI-H1975, 72 h), 30.7 nM; in assay [3] (Homo sapiens, A-431, 72 h) it was 1140 nM.
Take `C=CC(=O)Nc1cc(Nc2ncc(Cl)c(-c3cn(C)c4ccccc34)n2)c(OC(C)C)nc1N(C)CCN(C)C` [Example 1 compound, N-{2-{[2-(dimethylamino)ethyl](methyl)amino}-6-isopropyloxy-5-{5-chloro-[4-(1-methyl-1H-indol-3-yl)pyrimidin-2-yl]amino}pyridin-3-yl}acrylamide]: the concentration for half-maximal inhibition (IC50) in assay [1] (72 hours) came to 2.15 nM; in assay [2] (72 hours) it was 5.64 nM; in assay [3] (72 hours), 140 nM.
As to `C=CC(=O)Nc1cc(Nc2nccc(-c3cn(C)c4cc(F)ccc34)n2)c(OC(C)C)nc1N(C)CCN(C)C` [Example 13 compound, N-{2-{[2-(dimethylamino)ethyl](methyl)amino}-6-isopropyloxy-5-{[4-(1-methyl-6-fluoro-1H-indol-3-yl)pyrimidin-2-yl]amino}pyridin-3-yl}acrylamide], the IC50 in assay [1] (Homo sapiens, HCC827, 72 h) was determined as 2.62 nM; in assay [2] (Homo sapiens, NCI-H1975, 72 h) it was 5.33 nM; in assay [3] (Homo sapiens, A-431, 72 h), 209 nM.
`C=CC(=O)Nc1cc(Nc2ncc(Cl)c(-c3cn(C)c4ncccc34)n2)c(OC(C)C)nc1N(C)CCN(C)C` [Example 19 compound, N-{2-{[2-(dimethylamino)ethyl](methyl)amino}-6-isopropyloxy-5-{[5-chloro-4-(1-methyl-1H-pyrrolo[2,3-b]pyridin-3-yl)pyrimidin-2-yl]amino}pyridin-3-yl}acrylamide]: the IC50 in assay [1] (Homo sapiens, HCC827, 72 h) was found to be 2.62 nM; in assay [2] (Homo sapiens, NCI-H1975, 72 h), 2.56 nM; in assay [3] (Homo sapiens, A-431, 72 h), 209 nM.

The values are drawn from patent USRE48687E1, “Pyridinylaminopyrimidine derivatives, preparation process and use thereof” (Shanghai Allist Pharmaceuticals Co., Ltd., priority 2014, dated 2021).
